Values quoted from earlier work in patent US9012464B2, “Salts and polymorphic forms of Afatinib” (Ratiopharm GmbH, priority 2010, dated 2015).

Conditions: acid compound used for forming afatinib salts

pKa1: 0.7
Compound: O=S(=O)(O)c1ccccc1 [Benzenesulphonic acid]
